Tests used:
[1] = tested on: Monographella nivalis (Microdochium nivale); experiment: Monographella nivalis (Microdochium nivale)/Liquid Culture (Foot Rot Cereals); format: cell-based; details: liquid culture, compared to untreated control
Experimental: (§1) Conidia of the fungus from cryogenic storage are directly mixed into nutrient broth (PDB potato dextrose broth). After placing a (DMSO) solution of test compound into a microtiter plate (96-well format), the nutrient broth containing the fungal spores is added.

[2] = tested on: Mycosphaerella arachidis (Cercospora arachidicola); experiment: Mycosphaerella arachidis (Cercospora arachidicola)/Liquid Culture (Early Leaf Spot); format: cell-based; details: liquid culture, compared to untreated control
Experimental: as §1

[3] = tested on: Magnaporthe grisea (Pyricularia oryzae); experiment: whole plant or invertebrate; format: in vivo; details: foliar, read-out: control of Magnaporthe grisea
[4] = tested on: Mycosphaerella graminicola (Septoria tritici); experiment: Mycosphaerella graminicola (Septoria tritici)/Liquid Culture (Septoria Blotch); format: cell-based; details: Zymoseptoria tritici; 20 ppm; liquid culture; compared to untreated control
Experimental: Conidia of the fungus from cryogenic storage are directly mixed into nutrient broth (PDB potato dextrose broth). After placing a (DMSO) solution of test compound into a microtiter plate (96-well format), the nutrient broth containing the fungal spores is added. […] The data are presented as the percentage of disease control of each compound for the biological tests against G. lagenarium (Example B3), P. recondita preventative (Example B13), P. teres (Example B15) and M. graminicola (Example B19) as described above. The testing rates of each biological test is specifically described in table C1 below.

Plasmopara viticola = experiment: whole plant or invertebrate; format: in vivo; details: foliar, read-out: control of Plasmopara viticola
[5] = tested on: Puccinia recondita f. sp. tritici; experiment: Puccinia recondita f. sp. tritici/Wheat/Leaf Disc Curative (Brown Rust); format: in vivo; details: foliar, wheat leaf disc curative, compared to untreated control
Experimental: Wheat leaf segments cv. Kanzler are placed on agar in multiwell plates (24-well format). The leaf segments are inoculated with a spore suspension of the fungus. Plates are stored in darkness at 19° C. and 75% rh. The formulated test compound diluted in water is applied 1 day after inoculation. The leaf segments are incubated at 19° C. and 75% rh under a light regime of 12 h light/12 h darkness in a climate cabinet and the activity of a compound is assessed as percent disease control compared to untreated when an appropriate level of disease damage appears in untreated check leaf segments (6-8 days after application).

[6] = tested on: Puccinia recondita f. sp. tritici; experiment: Puccinia recondita f. sp. tritici/Wheat/Leaf Disc Preventative (Brown Rust); format: in vivo; details: foliar, 200 ppm, wheat leaf disc preventative, compared to untreated control, read-out: control of Puccinia recondita f. sp. tritici
[7] = tested on: Phaeosphaeria nodorum (Septoria nodorum); experiment: Phaeosphaeria nodorum (Septoria nodorum)/Wheat/Leaf Disc Preventative (Glume Blotch); format: in vivo; details: Parastagonospora nodorum, foliar, wheat leaf disc preventative, compared to untreated control
Experimental: Wheat leaf segments cv. Kanzler are placed on agar in a multiwell plate (24-well format) and sprayed with the formulated test compound diluted in water. The leaf disks are inoculated with a spore suspension of the fungus 2 days after application. The inoculated test leaf disks are incubated at 20° C. and 75% rh under a light regime of 12 h light/12 h darkness in a climate cabinet and the activity of a compound is assessed as percent disease control compared to untreated when an appropriate level of disease damage appears in untreated check leaf disks (5-7 days after application).

Phytophthora infestans = experiment: whole plant or invertebrate; format: in vivo; details: in Solanum lycopersicum, foliar, read-out: control of Phytophthora infestans
[8] = tested on: Blumeria graminis f. sp. tritici (Erysiphe graminis f. sp. tritici); experiment: Blumeria graminis f. sp. tritici/Wheat/Leaf Disc Preventative (Powdery Mildew on Wheat); format: in vivo; details: foliar, wheat leaf disc preventative, compared to untreated control
Experimental: Wheat leaf segments cv. Kanzler are placed on agar in a multiwell plate (24-well format) and sprayed with the formulated test compound diluted in water. The leaf disks are inoculated by shaking powdery mildew infected plants above the test plates 1 day after application. The inoculated leaf disks are incubated at 20° C. and 60% rh under a light regime of 24 h darkness followed by 12 h light/12 h darkness in a climate chamber and the activity of a compound is assessed as percent disease control compared to untreated when an appropriate level of disease damage appears on untreated check leaf segments (6-8 days after application).

[9] = tested on: Glomerella lagenarium (Colletotrichum lagenarium); experiment: Glomerella lagenarium (Colletotrichum lagenarium)/Liquid Culture (Anthracnose); format: cell-based; details: Colletotrichum orbiculare, liquid culture, compared to untreated control
[10] = tested on: Botryotinia fuckeliana (Botrytis cinerea); experiment: Botryotinia fuckeliana (Botrytis cinerea)/Liquid Culture (Gray Mould); format: cell-based; details: liquid culture, compared to untreated control
Experimental: Conidia of the fungus from cryogenic storage are directly mixed into nutrient broth (Vogels broth). After placing a (DMSO) solution of test compound into a microtiter plate (96-well format), the nutrient broth containing the fungal spores is added.

Phakopsora pachyrhizi = experiment: Phakopsora pachyrhizi/Soybean/Preventative (Soybean Rust); format: in vivo; details: foliar, 288 h, 200 ppm, soybean leaf disc preventative, compared to untreated control, read-out: control of Phakopsora pachyrhizi

| Structure (SMILES) | inhibition of growth at 20 ppm [1] [%] | inhibition of growth at 20 ppm [2] [%] | melting point [°C] | pest or weed control at 200 ppm [3] [%] | inhibition of growth at 20 ppm [4] [%] | pest or weed control at 200 ppm (Plasmopara viticola) [%] | pest or weed control at 200 ppm [5] [%] | pest or weed control at 200 ppm [6] [%] | pest or weed control at 200 ppm [7] [%] | pest or weed control at 200 ppm (Phytophthora infestans) [%] | pest or weed control at 200 ppm [8] [%] | inhibition of growth at 20 ppm [9] [%] | inhibition of growth at 20 ppm [10] [%] | pest or weed control at 200 ppm (Phakopsora pachyrhizi) [%] |
| --- | --- | --- | --- | --- | --- | --- | --- | --- | --- | --- | --- | --- | --- | --- |
| CO/C=C(\Oc1cc(-n2cc(Cl)c(C(C)C)n2)ccc1C)C(=O)OC [Compound E-11, methyl (Z)-2-[5-(4-chloro-3-isopropyl-pyrazol-1-yl)-2-methyl-phenoxy]-3-methoxy-prop-2-enoate] | ≥ 80 | ≥ 80 | 95 to 100 | ≥ 80 | ≥ 80 | ≥ 80 | ≥ 80 | ≥ 80 | ≥ 80 |  |  |  |  |  |
| CO/C=C(\Oc1cc(-n2ccc(C3CC3(F)F)n2)ccc1C)C(=O)OC (centres unmarked) [Compound E-26, methyl (Z)-2-[5-[3-(2,2-difluorocyclopropyl)pyrazol-1-yl]-2-methyl-phenoxy]-3-methoxy-prop-2-enoate] | ≥ 80 | ≥ 80 |  | ≥ 80 | ≥ 80 | ≥ 80 | ≥ 80 | ≥ 80 | ≥ 80 | ≥ 80 | ≥ 80 | ≥ 80 |  |  |
| CO/C=C(\Oc1cc(-n2ccc(C)n2)c(Cl)cc1C)C(=O)OC [Compound E-28, methyl (Z)-2-[4-chloro-2-methyl-5-(3-methylpyrazol-1-yl)phenoxy]-3-methoxy-prop-2-enoate] | ≥ 80 | ≥ 80 |  |  | ≥ 80 | ≥ 80 | ≥ 80 | ≥ 80 |  |  | ≥ 80 | ≥ 80 |  |  |
| CO/C=C(\Oc1cc(-n2cc(C#N)cn2)ccc1C)C(=O)OC [Compound E-55, methyl (Z)-2-[5-(4-cyanopyrazol-1-yl)-2-methyl-phenoxy]-3-methoxy-prop-2-enoate] | ≥ 80 | ≥ 80 |  |  | ≥ 80 |  |  | ≥ 80 |  |  |  |  | ≥ 80 |  |
| CO/C=C(\Oc1cc(-n2ccc(COC)n2)ccc1C)C(=O)OC [Compound E-77, methyl (Z)-3-methoxy-2-[5-[3-(methoxymethyl)pyrazol-1-yl]-2-methyl-phenoxy]prop-2-enoate] | ≥ 80 | ≥ 80 | 107 to 110 |  | ≥ 80 | ≥ 80 | ≥ 80 | ≥ 80 |  |  | ≥ 80 | ≥ 80 |  | ≥ 50 |
| CO/C=C(\Oc1cc(-n2ccc(C(F)F)n2)ccc1Br)C(=O)OC [Compound E-86, methyl (Z)-2-[2-bromo-5-[3-(difluoromethyl)pyrazol-1-yl]phenoxy]-3-methoxy-prop-2-enoate] | ≥ 80 | ≥ 80 |  | ≥ 80 | ≥ 80 |  |  | ≥ 80 | ≥ 80 |  | ≥ 80 | ≥ 80 | ≥ 80 |  |
| CO/C=C(\Oc1cc(-n2ccc(C(F)(F)F)n2)ccc1Br)C(=O)OC [Compound E-87, methyl (Z)-2-[2-bromo-5-[3-(trifluoromethyl)pyrazol-1-yl]phenoxy]-3-methoxy-prop-2-enoate] | ≥ 80 | ≥ 80 |  |  | ≥ 80 | ≥ 80 |  | ≥ 80 |  | ≥ 80 | ≥ 80 | ≥ 80 | ≥ 80 | ≥ 50 |
| CCc1ccn(-c2ccc(C)c(O/C(=C\OC)C(=O)OC)c2)n1 [Compound E-91, methyl (Z)-2-[5-(3-ethylpyrazol-1-yl)-2-methyl-phenoxy]-3-methoxy-prop-2-enoate] | ≥ 80 | ≥ 80 |  |  | ≥ 80 |  |  | ≥ 80 |  |  | ≥ 80 | ≥ 80 | ≥ 80 | ≥ 50 |
| CO/C=C(\Oc1cc(-n2ccc(C3CC3)n2)ccc1Br)C(=O)OC [Compound E-97, methyl (Z)-2-[2-bromo-5-(3-cyclopropylpyrazol-1-yl)phenoxy]-3-methoxy-prop-2-enoate] | ≥ 80 | ≥ 80 |  |  | ≥ 80 |  |  | ≥ 80 |  | ≥ 80 | ≥ 80 | ≥ 80 | ≥ 80 | ≥ 50 |
| CO/C=C(\Oc1cc(-n2ccc(C)n2)ccc1C)C(=O)OC [Compound E-104, methyl (Z)-3-methoxy-2-[2-methyl-5-(3-methylpyrazol-1-yl)phenoxy]prop-2-enoate] | ≥ 80 | ≥ 80 |  | ≥ 80 | ≥ 80 |  |  | ≥ 80 | ≥ 80 |  | ≥ 80 | ≥ 80 | ≥ 80 |  |
| CO/C=C(\Oc1cc(-n2ccc(C3CCCCC3)n2)cc(C)c1C)C(=O)OC [Compound E-110, methyl (Z)-2-[5-(3-cyclohexylpyrazol-1-yl)-2,3-dimethyl-phenoxy]-3-methoxy-prop-2-enoate] | ≥ 80 | ≥ 80 | 90 to 93 | ≥ 80 | ≥ 80 | ≥ 80 | ≥ 80 | ≥ 80 | ≥ 80 | ≥ 80 |  | ≥ 80 |  |  |
| CO/C=C(\Oc1cc(-n2ccc(C3CCCCC3)n2)c(Cl)cc1C)C(=O)OC [Compound E-115, methyl (Z)-2-[4-chloro-5-(3-cyclohexylpyrazol-1-yl)-2-methyl-phenoxy]-3-methoxy-prop-2-enoate] | ≥ 80 | ≥ 80 | 127 to 129 |  | ≥ 80 |  | ≥ 80 | ≥ 80 |  |  | ≥ 80 | ≥ 80 |  |  |
| CO/C=C(\Oc1cc(-n2ncc(C3CC3)n2)ccc1C)C(=O)OC [Compound F-8, methyl (Z)-2-[5-(4-cyclopropyltriazol-2-yl)-2-methyl-phenoxy]-3-methoxy-prop-2-enoate] | ≥ 80 | ≥ 80 |  |  | ≥ 80 | ≥ 80 |  |  | ≥ 80 | ≥ 80 | ≥ 80 | ≥ 80 | ≥ 80 |  |
